Among the data in patent US9073926B2, “Heterocyclic compounds containing a pyrrolopyridine or benzimidazole core” (Boehringer Ingelheim International GmbH, priority 2009, dated 2015) are IC50 values, retold here.

Chain of Human RSK2 (P51812 whole entry): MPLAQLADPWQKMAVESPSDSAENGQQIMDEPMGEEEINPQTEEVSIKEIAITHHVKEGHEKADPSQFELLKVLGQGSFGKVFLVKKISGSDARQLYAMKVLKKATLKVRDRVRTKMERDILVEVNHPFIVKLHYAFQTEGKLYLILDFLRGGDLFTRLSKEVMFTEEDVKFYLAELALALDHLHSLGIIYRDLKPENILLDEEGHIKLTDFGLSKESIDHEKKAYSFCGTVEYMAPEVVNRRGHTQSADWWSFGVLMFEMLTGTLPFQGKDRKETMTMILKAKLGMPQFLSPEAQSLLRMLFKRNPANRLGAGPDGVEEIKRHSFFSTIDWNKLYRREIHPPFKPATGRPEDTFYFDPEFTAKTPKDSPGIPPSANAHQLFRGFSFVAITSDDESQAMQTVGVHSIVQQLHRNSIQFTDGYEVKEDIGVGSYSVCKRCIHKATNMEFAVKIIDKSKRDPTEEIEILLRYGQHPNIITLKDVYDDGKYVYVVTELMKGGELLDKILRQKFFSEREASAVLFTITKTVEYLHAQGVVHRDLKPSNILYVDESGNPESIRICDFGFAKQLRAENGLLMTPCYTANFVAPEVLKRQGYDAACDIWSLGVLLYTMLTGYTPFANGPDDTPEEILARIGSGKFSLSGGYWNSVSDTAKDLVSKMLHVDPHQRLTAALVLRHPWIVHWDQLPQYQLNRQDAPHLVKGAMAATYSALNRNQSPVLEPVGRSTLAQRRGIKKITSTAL

In this test the target is Human RSK2 (Homo sapiens (Human), UniProt P51812). Briefly: Human RSK2 Assay (Kinase Glo Plus, residual ATP). The format is biochemical. The note with it: 0.75 nM His-RSK2, 0.75 μM ATP, 1.0 μM S6 Kinase/RSK Substrate Peptide 1. How it is done:
Experimental Method A: Human RSK2 Assay
Compounds are assessed for their ability to inhibit the phosphorylation of a substrate peptide by RSK2.
Human RSK2 protein, purchased from Invitrogen, is used to measure kinase activity utilizing Kinase Glo Plus (Promega) a homogeneous assay technology, which uses a luciferin-luciferase based ATP detection reagent to quantify residual ATP. The assay is performed using 0.75 nM His-RSK2, 0.75 μM ATP and 1.0 μM S6 Kinase/RSK Substrate Peptide 1 (Upstate, catalog #12-124), in assay buffer consisting of 25 mM HEPES, pH 7.5, 10 mM MgCl2, 5 mM MnCl2, 50 mM KCl, 0.2% BSA, 0.01% CHAPS, 100 μM Na3VO4, 0.5 mM DTT, and 1% DMSO. Solutions of test compounds at various concentrations are prepared by 1:3 fold serial dilution of a 1 mM solution of compound in DMSO. The DMSO solutions are further diluted with assay buffer to a final concentration of DMSO of 5%.
The assay is performed in a 384 well, white, non-binding plate (Corning, catalogue #3574). Solutions of test compounds (10 μL) are transferred to a dry assay plate, followed by addition of 20 μL kinase and 20 μL ATP+Substrate Peptide 1 described above. The kinase reaction mixture is incubated for 90 minutes at 28° C. followed by addition of 30 μL of ATP detection reagent for 15 minutes at room temperature. The relative light unit (RLU) signal is measured on a LJL Analyst (Molecular Devices) in luminescence mode using 384 aperture. The RLU signals were converted to percent of control (POC) values using the formula: POC=100*(BCTRL−Signal)/(BCTRL−PCTRL), where Signal is the test well RLU signal, BCTRL is the average of background (negative control), which consists of ATP+peptide and compound buffer, well signals on the plate, and PCTRL is the average of positive control, which consists of kinase, ATP+peptide, and compound buffer, well signals on the plate. For concentration-responsive compounds, POC as a function of test compound concentration are fitted to a 4-parameter logistic equation of the form: Y=A+(B−A)/[1+(x/C)^D], where A, B, C, and D are fitted parameters (parameter B is fixed at zero POC), and x and y are the independent and dependent variables, respectively. The IC50 (50% inhibitory concentration) is determined as the inflection point parameter, C. Experimental Method B: Human RSK2 Trans-Reporter Assay
Take `CCn1c(NC(=O)c2ccc3nc4n(c3c2)CCCNC4=O)nc2cccnc21` [Example 17, N-(3-ethyl-3H-imidazol[4,5-b]pyridin-2-yl)-1-oxo-2,3,4,5-tetrahydro-1H-[1,4]diazepino[1,2-a]benzimidazole-8-carboxamide]: the IC50 was 23 nM.

As for `CC(C)n1c(NC(=O)c2ccc3nc4n(c3c2)C(C)(C)CCNC4=O)nc2ccccc21` [Example 18, 5,5-dimethyl-1-oxo-N-[1-(propan-2-yl)-1H-benzimidazol-2-yl]-2,3,4,5-tetrahydro-1H-[1,4]diazepino[1,2-a]benzimidazole-8-carboxamide], the IC50 amounted to 4.7 nM.

On to `O=C(Nc1cc(-c2ccccc2)no1)c1ccc2nc3n(c2c1)CCCNC3=O` [Example 19, 1-oxo-N-(3-phenyl-1,2-oxazol-5-yl)-2,3,4,5-tetrahydro-1H-[1,4]diazepino[1,2-a]benzimidazole-8-carboxamide], for which the half-maximal inhibitory concentration (IC50) amounted to 290 nM.

As to `Cc1cc(NC(=O)c2ccc3nc4n(c3c2)CCCNC4=O)no1` [Example 20, N-(5-methyl-1,2-oxazol-3-yl)-1-oxo-2,3,4,5-tetrahydro-1H-[1,4]diazepino[1,2-a]benzimidazole-8-carboxamide], the IC50 was found to be 1550 nM.

Consider `CC(C)(C)c1cc(NC(=O)c2ccc3nc4n(c3c2)CCCNC4=O)no1` [Example 21, N-(5-tert-butyl-1,2-oxazol-3-yl)-1-oxo-2,3,4,5-tetrahydro-1H-[1,4]diazepino[1,2-a]benzimidazole-8-carboxamide], for which the IC50 was determined as 2000 nM.

Regarding `O=C(Nc1cccc(-c2c[nH]cn2)c1)c1ccc2nc3n(c2c1)CCCNC3=O` [Example 22, N-[3-(1H-imidazol-4-yl)phenyl]-1-oxo-2,3,4,5-tetrahydro-1H-[1,4]diazepino[1,2-a]benzimidazole-8-carboxamide], the IC50 worked out at 1700 nM.

As for `O=C(Nc1cnc2ccccc2c1)c1ccc2cc3n(c2n1)CCCNC3=O` [Example 23, 6-oxo-N-(quinolin-3-yl)-7,8,9,10-tetrahydro-6H-pyrido[3′,2′:4,5]pyrrolo[1,2-a][1,4]diazepine-2-carboxamide], the 50% inhibitory concentration (IC50) was found to be 9.2 nM.

Turning to `Cc1nc(-c2cccc(NC(=O)c3ccc4cc5n(c4n3)CCCNC5=O)c2)cs1` [Example 24, N-[3-(2-methyl-1,3-triazol-4-yl)phenyl]-6-oxo-7,8,9,10-tetrahydro-6H-pyrido[3′,2′:4,5]pyrrolo[1,2-a][1,4]diazepine-2-carboxamide], the IC50 came to 56 nM.

On to `O=C(Nc1cccc(F)c1)c1ccc2cc3n(c2n1)CCCNC3=O` [Example 25, N-(3-fluorophenyl)-6-oxo-7,8,9,10-tetrahydro-6H-pyrido[3′,2′:4,5]pyrrolo[1,2-a][1,4]diazepine-2-carboxamide], for which the IC50 amounted to 20 nM.

For the compound `NC(=O)c1ccccc1NC(=O)c1ccc2cc3n(c2n1)CCCNC3=O` [Example 26, N-(2-carbamoylphenyl)-6-oxo-7,8,9,10-tetrahydro-6H-pyrido[3′,2′:4,5]pyrrolo[1,2-a][1,4]diazepine-2-carboxamide], the IC50 came out at 2.3 nM.

`O=C(Nc1cccnc1)c1ccc2cc3n(c2n1)CCCNC3=O` [Example 27, 6-oxo-N-(pyridin-3-yl)-7,8,9,10-tetrahydro-6H-pyrido[3′,2′:4,5]pyrrolo[1,2-a][1,4]diazepine-2-carboxamide]: the IC50 worked out at 37 nM.

For the compound `CCOC(=O)c1nc(NC(=O)c2ccc3cc4n(c3n2)CCCNC4=O)cn1C` [Example 28, ethyl 1-methyl-4-{[(6-oxo-7,8,9,10-tetrahydro-6H-pyrido[3′,2′:4,5]pyrrolo[1,2-a][1,4]diazepin-2-yl)carbonyl]amino}-1H-imidazole-2-carboxylate], the half-inhibitory concentration (IC50) worked out at 90 nM.

In the case of `CC(C)n1ncc2cc(NC(=O)c3ccc4cc5n(c4n3)C(C)CCNC5=O)cnc21` (stereo not shown) [Example 29, 10-methyl-6-oxo-N-[1-(propan-2-yl)-1H-pyrazolo[3,4-b]pyridin-5-yl]-7,8,9,10-tetrahydro-6H-pyrido[3′,2′:4,5]pyrrolo[1,2-a][1,4]diazepine-2-carboxamide], the 50% inhibitory concentration (IC50) worked out at 2.1 nM.

With `CC(C)n1ncc2cc(NC(=O)c3ccc4cc5n(c4n3)CCCNC5=O)cnc21` [Example 30, 6-oxo-N-[1-(propan-2-yl)-1H-pyrazolo[3,4-b]pyridin-5-y]-7,8,9,10-tetrahydro-6H-pyrido[3′,2′:4,5]pyrrolo[1,2-a][1,4]diazepine-2-carboxamide], the half-maximal inhibitory concentration (IC50) was 25 nM.

On to `CC(C)n1ncc2cc(NC(=O)c3ccc4cc5n(c4n3)CC(C)(C)CNC5=O)cnc21` [Example 31, 9,9-dimethyl-6-oxo-N-[1-(propan-2-yl)-1H-pyrazolo[3,4-b]pyridin-5-yl]-7,8,9,10-tetrahydro-6H-pyrido[3′,2′:4,5]pyrrolo[1,2-a][1,4]diazepine-2-carboxamide], for which the IC50 worked out at 105 nM.

In the case of `CC1CCNC(=O)c2cc3ccc(C(=O)Nc4cnc5c(cnn5C5CCOCC5)c4)nc3n21` (stereo not shown) [Example 32, 10-methyl-6-oxo-N-[1-(tetrahydro-2H-pyran-4-yl)-1H-pyrazolo[3,4-b]pyridin-5-yl]-7,8,9,10-tetrahydro-6H-pyrido[3′,2′:4,5]pyrrolo[1,2-a][1,4]diazepine-2-carboxamide], the IC50 turned out to be 2.3 nM.

On to `O=C(Nc1cnc2c(cnn2C2CCOCC2)c1)c1ccc2cc3n(c2n1)CCCNC3=O` [Example 33, 6-oxo-N-[1-(tetrahydro-2H-pyran-4-yl)-1H-pyrazolo[3,4-b]pyridin-5-yl]-7,8,9,10-tetrahydro-6H-pyrido[3′,2′:4,5]pyrrolo[1,2-a][1,4]diazepine-2-carboxamide], for which the concentration for half-maximal inhibition (IC50) amounted to 20 nM.

Consider `CC1(C)CNC(=O)c2cc3ccc(C(=O)Nc4cnc5c(cnn5C5CCOCC5)c4)nc3n2C1` [Example 34, 9,9-dimethyl-6-oxo-N-[1-(tetrahydro-2H-pyran-4-yl)-1H-pyrazolo[3,4-b]pyridin-5-yl]-7,8,9,10-tetrahydro-6H-pyrido[3′,2′:4,5]pyrrolo[1,2-a][1,4]diazepine-2-carboxamide], for which the IC50 is 62 nM.

With `CC1CCNC(=O)c2cc3ccc(C(=O)Nc4cnc5c(cnn5CC5CCOC5)c4)nc3n21` (stereo not shown) [Example 35, 10-methyl-6-oxo-N-[1-(tetrahydrofuran-3-ylmethyl)-1H-pyrazolo[3,4-b]pyridin-5-yl]-7,8,9,10-tetrahydro-6H-pyrido[3′,2′:4,5]pyrrolo[1,2-a][1,4]diazepine-2-carboxamide], the IC50 amounted to 1.6 nM.

With `O=C(Nc1cnc2c(cnn2CC2CCOC2)c1)c1ccc2cc3n(c2n1)CCCNC3=O` (stereo not shown) [Example 36, 6-oxo-N-[1-(tetrahydrofuran-3-ylmethyl)-1H-pyrazolo[3,4-b]pyridin-5-yl]-7,8,9,10-tetrahydro-6H-pyrido[3′,2′:4,5]pyrrolo[1,2-a][1,4]diazepine-2-carboxamide], the IC50 amounted to 13 nM.

On to `CC1(C)CNC(=O)c2cc3ccc(C(=O)Nc4cnc5c(cnn5CC5CCOC5)c4)nc3n2C1` (stereo not shown) [Example 37, 9,9-dimethyl-6-oxo-N-[1-(tetrahydrofuran-3-ylmethyl)-1H-pyrazolo[3,4-b]pyridin-5-yl]-7,8,9,10-tetrahydro-6H-pyrido[3′,2′:4,5]pyrrolo[1,2-a][1,4]diazepine-2-carboxamide], for which the IC50 came out at 25 nM.

`Cc1ccnc(NC(=O)c2ccc3cc4n(c3n2)CCCNC4=O)c1` [Example 38, N-(4-methylpyridin-2-yl)-6-oxo-7,8,9,10-tetrahydro-6H-pyrido[3′,2′:4,5]pyrrolo[1,2-a][1,4]diazepine-2-carboxamide]: the IC50 stood at 3.8 nM.

Broadly, the IC50 is the concentration that gives 50% inhibition.
